# According to US11945811B2, “Potassium channel inhibitors” (ACESION PHARMA APS, priority 2021, dated 2024):
# Target: T1, human SK3 channel (hKCa2.3) (Homo sapiens, UniProt Q9UGI6)
# T1 construct: expressed in transfected cells
# Assay: Automated patch clamping (QPatch 16 HT whole-cell recordings)
# Type: cell-based
# Details: HEK-293 cells stably expressing hKCa2.3; currents measured at −80 mV; normalized to N-methyl bicuculline; read-out: IC50 in the Automated patch clamping assay (SK3 channel inhibition)
# Description: Automated whole cell patch-clamp recordings were performed using a QPatch 16 HT system and single-hole Qplates (Sophion, Denmark) on HEK-293 cells stably expressing the human SK3 channel (hKCa2.3). Cells were cultured and prepared for experiments using normal cell culturing procedures. A total of 4-5 million cells were used per experiment. The Qpatch automatically generates giga sealing, whole-cell formation, compound application and recording of current. hKCa2.3 currents were recorded in symmetrical K^+ solutions. The intracellular/pipette solution contained 154 mM KCl, 10 mM HEPES and 10 mM EGTA. CaCl2 is added to give calculated free concentrations of Ca^2+ of 0.4 μM and MgCl2 is added to give a free concentration of 1 mM. In order to maintain a total [K^+] of 156 mM (corresponding to the concentration in the extracellular ringer) a fixed amount of KOH (15 mM) is added, thereafter pH is adjusted with HCl to pH=7.2. Expected osmolarity: 275 mOsm. Sucrose was added to a final osmolarity around 295 mosm. The extracellular solution consisted of (in mM): CaCl2 0.1, MgCl2 3, KCl 150, HEPES 10 and glucose 10, pH=7.4 adjusted with KOH. Osmolarity between 285-295 mosm. The cells were held at 0 mV and hKCa2.3 currents were elicited by a linear voltage ramp from −80 mV to +80 mV (200 ms in duration) applied every 5th second.
# The compound application protocol consisted of 12 recording periods lasting 200 s: 1) Baseline recordings in extracellular solution; 2) Application of the positive control N-methyl bicuculline (100 μM), which is characterized by full efficacy, fast on- and off-rate; 3-4) Wash-out; 5-10) Increasing concentrations of test compound to establish an IC50 value; 11-12) Wash-out; 13) positive control with compound NS8593 (N-[(1R)-1,2,3,4-tetrahydro-1-naphthalenyl]-1H-benzimidazol-2-amine) (1 μM) or with N-methyl bicuculline (100 μM). Data were sampled at 10 kHz, 4th order Bessel filter, cut-off frequency 3 kHz. Currents were compensated for run-down. Potency was quantified as the concentration needed to inhibit half of the SK channel activity and reported as an IC50 value.
# All effects of compounds of the present invention as tested were normalized to the observed inhibitory effect of N-methyl bicuculline. Currents were measured at −80 mV.
row,Structure (SMILES),IC50
1,"CN1CCN(Cc2cccc3[nH]c(NC(C)(CO)c4ccc(F)c(Cl)c4)nc23)C1=O (centres unmarked) [Example 35, 1-[(2-{[2-(3-chloro-4-fluorophenyl)-1-hydroxypropan-2-yl]amino}-1H-1,3-benzodiazol-4-yl)methyl]-3-methylimidazolidin-2-one]",< 30000 nM
2,"Cc1cn(Cc2cccc3[nH]c(NC(C)(CO)c4cccc(C(F)(F)F)c4)nc23)c(=N)o1 (centres unmarked) [Example 24, 2-({4-[(2-imino-5-methyl-2,3-dihydro-1,3-oxazol-3-yl)methyl]-1H-1,3-benzodiazol-2-yl}amino)-2-[3-(trifluoromethyl)phenyl]propan-1-ol]",< 1000 nM
3,"CCC(CO)(Nc1nc2c(Cn3ccoc3=N)cccc2[nH]1)c1cccc(C(F)(F)F)c1 (centres unmarked) [Example 25, 2-({4-[(2-imino-2,3-dihydro-1,3-oxazol-3-yl)methyl]-1H-1,3-benzodiazol-2-yl}amino)-2-[3-(trifluoromethyl)phenyl]butan-1-ol]",< 30000 nM
4,"Cc1cc(NCc2cccc3[nH]c(NC(C)(CO)c4ccc(F)c(Cl)c4)nc23)no1 (centres unmarked) [Example 12, 2-(3-chloro-4-fluorophenyl)-2-[(4-{[(5-methyl-1,2-oxazol-3-yl)amino]methyl}-1H-1,3-benzodiazol-2-yl)amino]propan-1-ol]",< 1000 nM
5,"Cc1nnc(NCc2cccc3[nH]c(NC(C)(CO)c4ccc(F)c(Cl)c4)nc23)o1 (centres unmarked) [Example 16, 2-(3-chloro-4-fluorophenyl)-2-((4-(((5-methyl-1,3,4-oxadiazol-2-yl)amino)methyl)-1H-benzo[d]imidazol-2-yl)amino) propan-1-ol]",< 30000 nM
6,"CC(CO)(Nc1nc2c(CNc3ccon3)cccc2[nH]1)c1ccc(F)c(Cl)c1 (centres unmarked) [Example 9, 2-(3-chloro-4-fluorophenyl)-2-[(4-{[(1,2-oxazol-3-yl)amino]methyl}-1H-1,3-benzodiazol-2-yl)amino]propan-1-ol]",< 1000 nM
7,"CC(CCO)(Nc1nc2c(Cn3ccoc3=N)cccc2[nH]1)c1cccc(C(F)(F)F)c1 (centres unmarked) [Example 26, 3-({4-[(2-imino-2,3-dihydro-1,3-oxazol-3-yl)methyl]-1H-1,3-benzodiazol-2-yl}amino)-3-[3-(trifluoromethyl)phenyl]butan-1-ol]",< 30000 nM
8,"Cc1coc(=N)n1Cc1cccc2[nH]c(NC(C)(CO)c3cccc(OC(F)(F)F)c3)nc12 (centres unmarked) [Example 29, 2-({4-[(2-imino-4-methyl-2,3-dihydro-1,3-oxazol-3-yl)methyl]-1H-1,3-benzodiazol-2-yl}amino)-2-[3-(trifluoromethoxy)phenyl]propan-1-ol]",< 1000 nM
9,"CC(C)(Nc1nc2c(Cn3ccoc3=N)cccc2[nH]1)c1cccc(C(F)(F)F)c1 [Example 7, 4-[(2-imino-2,3-dihydro-1,3-oxazol-3-yl)methyl]-N-{2-[3-(trifluoromethyl)phenyl]propan-2-yl}-1H-1,3-benzodiazol-2-amine]",< 1000 nM
10,"CC(CO)(Nc1nc2c(CN3CCCC3=O)cccc2[nH]1)c1ccc(F)c(Cl)c1 (centres unmarked) [Example 37, 1-[(2-{[2-(3-chloro-4-fluorophenyl)-1-hydroxypropan-2-yl]amino}-1H-1,3-benzodiazol-4-yl)methyl]pyrrolidin-2-one]",< 30000 nM
11,"CC(CO)(Nc1nc2c(Cn3ccoc3=N)cccc2[nH]1)c1ccc(F)c(Cl)c1 (centres unmarked) [Example 8, 2-(3-chloro-4-fluorophenyl)-2-({4-[(2-imino-2,3-dihydro-1,3-oxazol-3-yl)methyl]-1H-1,3-benzodiazol-2-yl}amino)propan-1-ol]",< 1000 nM
12,"CC(CO)(Nc1nc2c(Cn3cc[nH]c3=O)cccc2[nH]1)c1ccc(F)c(Cl)c1 (centres unmarked) [Example 33, 1-[(2-{[2-(3-chloro-4-fluorophenyl)-1-hydroxypropan-2-yl]amino}-1H-1,3-benzodiazol-4-yl)methyl]-2,3-dihydro-1H-imidazol-2-one]",< 30000 nM
13,"Cc1nc(NCc2cccc3[nH]c(NC(C)(CO)c4ccc(F)c(Cl)c4)nc23)no1 (centres unmarked) [Example 15, 2-(3-chloro-4-fluorophenyl)-2-[(4-{[(5-methyl-1,2,4-oxadiazol-3-yl)amino]methyl}-1H-1,3-benzodiazol-2-yl)amino]propan-1-ol]",< 30000 nM
14,"Cc1coc(=N)n1Cc1cccc2[nH]c(NC(C)(CO)c3ccc(F)c(Cl)c3)nc12 (single isomer, unassigned; (-)) [Example 13a, (−)-2-(3-chloro-4-fluorophenyl)-2-({4-[(2-imino-4-methyl-2,3-dihydro-1,3-oxazol-3-yl)methyl]-1H-1,3-benzodiazol-2-yl}amino)propan-1-ol]",< 1000 nM
15,"N=c1occn1Cc1cccc2[nH]c(NC3(c4cccc(Cl)c4)CC3)nc12 [Example 1, N-[1-(3-chlorophenyl)cyclopropyl]-4-[(2-imino-2,3-dihydro-1,3-oxazol-3-yl)methyl]-1H-1,3-benzodiazol-2-amine]",< 30000 nM
16,"Cc1coc(=N)n1Cc1cccc2[nH]c(NC(C)(CO)c3ccc(F)c(Cl)c3)nc12 (centres unmarked) [Example 13, 2-(3-chloro-4-fluorophenyl)-2-({4-[(2-imino-4-methyl-2,3-dihydro-1,3-oxazol-3-yl)methyl]-1H-1,3-benzodiazol-2-yl}amino)propan-1-ol]",< 1000 nM
17,"Cc1coc(=N)n1Cc1cccc2[nH]c(NC(C)(CO)c3cccc(C(F)(F)F)c3)nc12 (centres unmarked) [Example 23, 2-({4-[(2-imino-4-methyl-2,3-dihydro-1,3-oxazol-3-yl)methyl]-1H-1,3-benzodiazol-2-yl}amino)-2-[3-(trifluoromethyl)phenyl]propan-1-ol]",< 1000 nM

# Results, then the molecule that gave them:
row,IC50,Structure (SMILES)
1,< 1000 nM,"CC(CO)(Nc1nc2c(Cn3ccoc3=N)cccc2[nH]1)c1cc(F)cc(Cl)c1 (single isomer, unassigned) [Example 45a]"
2,< 30000 nM,"CC(CO)(Nc1nc2c(Cn3ccoc3=N)cccc2[nH]1)c1cccc(C(F)(F)F)c1 (single isomer, unassigned; (+)) [Example 18b, (+)-2-({4-[(2-imino-2,3-dihydro-1,3-oxazol-3-yl)methyl]-1H-1,3-benzodiazol-2-yl}amino)-2-[3-(trifluoromethyl)-phenyl]propan-1-ol]"
3,< 30000 nM,"CC(CO)(Nc1nc2c(CNc3ccon3)cccc2[nH]1)c1cc(Cl)ccc1F (single isomer, unassigned; (+)) [Example 49a, (+)-2-(5-chloro-2-fluorophenyl)-2-[(4-{[(1,2-oxazol-3-yl)amino]methyl}-1H-1,3-benzodiazol-2-yl)amino]propan-1-ol]"
4,< 1000 nM,"Cc1cn(Cc2cccc3[nH]c(NC(C)(CO)c4cccc(OC(F)(F)F)c4)nc23)c(=N)o1 (single isomer, unassigned; (-)) [Example 30a, (−)-2-({4-[(2-imino-5-methyl-2,3-dihydro-1,3-oxazol-3-yl)methyl]-1H-1,3-benzodiazol-2-yl}amino)-2-[3-(trifluoromethoxy)-phenyl]propan-1-ol]"
5,< 30000 nM,"CC(CO)(Nc1nc2c(Cn3ccoc3=N)cccc2[nH]1)c1ccc(Cl)c(Cl)c1 (single isomer, unassigned; (+)) [Example 19b, (+)-2-(3,4-dichlorophenyl)-2-({4-[(2-imino-2,3-dihydro-1,3-oxazol-3-yl)methyl]-1H-1,3-benzodiazol-2-yl}amino)propan-1-ol]"
6,< 1000 nM,"Cc1cn(Cc2cccc3[nH]c(NC(C)(CO)c4cccc(C(F)(F)F)c4)nc23)c(=N)o1 (single isomer, unassigned; (+)) [Example 24b, (+)-2-({4-[(2-imino-5-methyl-2,3-dihydro-1,3-oxazol-3-yl)methyl]-1H-1,3-benzodiazol-2-yl}amino)-2-[3-(trifluoromethyl)-phenyl]propan-1-ol]"
